From patent publication US6455271B1, “Identification of novel antimicrobial agents using membrane potential indicator dyes” (XOMA Technology, Ltd, priority 1998, dated 2002)
Values after ≈ are worked out from the molar mass of the structure shown. Like-named read-outs stand apart in the source and are kept apart here. Square brackets hold non-standard residues; d marks the D form. Peptide text beside a SMILES is read from it.

Key:
[1] = test system: Madin-Derby canine kidney epithelial (MDCK) cells
Description: The same procedure was also carried out using mammalian Madin-Derby canine kidney epithelial (MDCK) cells (ATCC Accession No. CCL34). The MDCK cells were cultured until confluent in MEM media supplemented with 10% fetal calf serum (FCS) and L-glutamine. The cells were harvested and resuspended to approximately 1-2×10^6 cells/mL in RPMI media, treated with XMP.391 or XMP.445 at concentrations varying from 5 μg/mL to 100 μg/mL, and incubated for 1 hour. The cells were then stained with DiOC6(3) for 30 minutes and fluorescence intensity was determined in the same manner as described above for C. albicans.
(§1) The relative effect of varying concentrations of the antifungal agent miconazole on fungal C. albicans cells treated with membrane potential indicator dye DiOC6(3) [Molecular Probes], mammalian MDCK cells treated with DiOC6(3) and mammalian MDCK cells treated with PI, was assessed as described above in Examples 1 and 2, except that fungal C. albicans or mammalian MDCK cells were resuspended to a concentration of 1×10^6 cells/mL.

C. albicans SLU#1 strain = assay type: cell-based, Candida albicans
[2] = test system: Candida albicans strain SLU#1; test: Flow cytometry of fungal cells treated with test agent and membrane potential dye DiOC6(3); assay type: cell-based; conditions: for concentration at which loss of fungal cell viability occurs: C. albicans SLU#1; for change in DiOC6(3) fluorescence intensity (mean channel from baseline) vs. concentration: C. albicans, 1 hour incubation with agent, 10 ng/mL DiOC6(3), FL1 530 nm, FIG. 1 / FIG. 3
Description: A stock fungal cell suspension was prepared as follows. Fungi (Candida albicans strain SLU#1) were cultured on Sabouraud's dextrose agar plates [1 L water, 10 g neopeptone, 20 g dextrose, 15 g Bacto Agar]. One or two colonies from the agar plate were inoculated into 5 mL of Sabouraud's dextrose broth (SDB) [1 L water, 10 g neopeptone, 20 g dextrose] in a sterile 10 mL polypropylene tube and incubated for about 18 hours at 30° C. After this incubation, 4 mL of the fungal culture was inoculated into a flask containing 100 mL of SDB and incubated for about 5 hours or until log growth phase was reached. The culture was centrifuged at 3000 rpm for 5 minutes (Sorvall RT6000B centrifuge), the supernatant was decanted and the pellets were resuspended in a total of 30 mL of SDB. Fungal cell concentration was determined either by absorbance at 570 nm or by diluting 1:10 with Trypan Blue and counting the number of fungal cells using a hemacytometer. The suspension was diluted with SDB to obtain a stock fungal cell suspension of approximately 1-2×10^6 CFU/mL.
Stock 1 mg/mL solutions of peptides XMP.391 and XMP.445 were prepared in saline, and six 2-fold serial dilutions were prepared using phosphate buffered saline (PBS). The fungal cell suspension was divided into 1 mL aliquots, and approximately 20 μL of each serial dilution of XMP.391 or XMP.445 peptide solution was added to an aliquot of fungal cell suspension to obtain final peptide concentrations of 0.313, 0.625, 1.25, 2.5, 5, 10 and 20 μg/mL in the aliquots. No peptide solution was added to the auto-fluorescence and baseline controls. The aliquots were incubated for 1 hour at 30° C. After the incubation, all aliquots were centrifuged at 3000 rpm for 5 minutes (Sorvall RT6000B) and the supernatant removed. The auto-fluorescence control aliquot was resuspended in 1 mL of SDB; the remainder of the samples and the baseline control were resuspended in 1 mL of 10 ng/mL DiOC6(3)/SDB. The auto-fluorescence control thus contained fungal cells in SDB alone (without XMP peptide and without dye), while the baseline control contained fungal cells with dye (but without XMP peptide). […]
The samples were analyzed for fluorescence on the FACScan flowcytometer [Becton-Dickinson, Mountain View, Calif.] using the fl1 detector at a wavelength of 530 nm using the following parameters:
The auto-fluorescence control was used for gating and fluorescence sensitivity was determined using the baseline control. The percent change in fluorescent intensity, expressed as mean channels, was determined by dividing the difference between the sample and baseline values by the baseline value: (sample fl1−baseline fl1)/baseline fl1×100.

C. albicans SLU#1 = test: Propidium iodide (PI) uptake by fungal cells, flow cytometry; assay type: cell-based, Candida albicans; conditions: C. albicans SLU#1, 10 μg/mL PI, FL2 585 nm; FIG. 2
Description: As in Example 1, the auto-fluorescence control contained fungal or mammalian cells in media alone (without XMP peptide and without PI), while the baseline control contained fungal or mammalian cells with PI (but without XMP peptide). Because it is a viability dye, PI is taken up only when cells are dying or dead; the fluorescent intensity of PI-treated samples should increase with the number of dead cells and should be maximal with 100% dead cells. Thus, for this experiment, a positive control was also prepared (containing 100% dead cells) by resuspending cells in 1 mL of 70% ethanol during the last 10 minutes of the initial 1-hour incubation; this positive control thus contained 100% dead cells with PI (but without XMP peptide). Samples were analyzed for PI uptake on the FACScan using the fl2 detector at a wavelength of 585 nm. The auto-fluorescence sample was used for gating, while the fluorescence sensitivity was determined by the positive control and the PI uptake threshold was determined by the baseline control. The percent change in fluorescent intensity in mean channels was determined using the same equation used in Example 1, and the percentage of cells with PI uptake (ie., dead cells) was calculated.

MDCK cells = test system: MDCK cells
Description: as §1

CACO-2 and MDCK cells = assay type: in vitro ADME
Description: Various BPI-derived peptides were screened for oral absorption in in vitro screening assays using CACO-2 and MDCK cells. Cultured monolayers of CACO-2 (Human colon carcinoma) [Audus, K. L., et al. Pharm. […] The cells were grown to confluency and allowed to differentiate. The integrity of the monolayers was determined by measuring the transepithelial resistance. The cells were incubated with peptide on the apical side for 2.5 hours in MDCK screening or 4 hours for CACO-2 screening. The transepithelial transport of the peptide was measured by quantitative HPLC analysis of the incubation media on the basolateral side of the cells. Radiolabelled mannitol and cortisone were used as positive controls.

Candida albicans, SLU-1 = test: 28-day comparative survival efficacy study in mice systemically infected with Candida albicans, oral gavage; assay type: in vivo; conditions: for mortality vs dextrose-treated controls: male DBA/2 mice, eight times, 28 days
Description: XMP.445 was tested for activity upon oral administration (oral activity) in a 28-day comparative survival efficacy study in mice systemically infected with Candida albicans. Specifically, male DBA/2 mice (Charles River Laboratories) six weeks of age were dosed with 7.9×10^4 Candida albicans, SLU-1 in 100 μl intravenously via the tail vein in a single dosage on day 0. Treatment began immediately thereafter with 400 μl oral gavage of either 0.5% dextrose, or XMP.445 in 0.5% dextrose at levels of either 10 mg/kg or 20 mg/kg every other day for a total of eight times. Amphotericin B (Fungizone®) was administered intravenously at 0.5 mg/kg as a positive control every other day for a total of eight times. Twice-day monitoring (once daily on weekends and holidays) for mortality was performed.

fungal cells = test: Confocal microscopy localization of membrane potential indicator dye in fungal cells; assay type: cell-based; conditions: DiOC6(3) 10 ng/mL or MitoTracker Red CM-H2Xros 1 μg/mL, 1 hour peptide incubation
Description: Confocal microscopy provides focused fluorescence detection, one plane or slice at a time, at a focus level that allows unobstructed localization of fluorescence within cells. A suspension of 1×10^6 fungal cells/mL was prepared as described above in Example 1 and 1 mL was dispensed into each of four Eppendorf microcentrifuge tubes. Two μL of 1 mg/mL XMP.445 (in saline) was added to two tubes and all four tubes were incubated for 1 hour at 30° C. After the incubation, all tubes were centrifuged in an Eppendorf 5415 centrifuge. The supernatant was removed and the pellet resuspended in 1 mL of SDB. The membrane potential indicator dye DiOC6(3) (diluted in SDB from a stock solution of 2 mg/mL in EtOH) was added to one set of peptide-treated and untreated tubes to a final concentration of 10 ng/mL. The membrane potential indicator dye MitoTracker™ Red CM-H2Xros (from a freshly prepared solution of 500 μg/mL in DMSO) was added to another set of peptide-treated and untreated tubes to a final concentration of 1 μg/mL. The tubes were incubated at 30° C. for 30 min. After the incubation the tubes were centrifuged and the supernatant removed. The pellets were resuspended in 100 μL of 30% glycerol/PBS solution. Three μL from each tube was pipetted onto a microscope slide with a No. 1 cover glass and placed onto a Zeiss 510 Confocal Microscope that uses LSM Version 2.01 software. […]

bacterial growth = conditions: background statement; cited from earlier work
[3] = background statement; cited from earlier work

For CC[C@H](C)[C@H](NC(=O)[C@H](CC(C)C)NC(=O)[C@H](Cc1c[nH]c2ccccc12)NC(=O)CNC(=O)[C@@H](NC(=O)[C@@H](N)CCCCN)C(C)C)C(=O)N[C@@H](CCC(N)=O)C(=O)N[C@@H](CC(C)C)C(=O)N[C@@H](Cc1ccccc1)C(=O)N[C@@H](Cc1c[nH]cn1)C(=O)N[C@@H](CCCCN)C(=O)N[C@@H](CCCCN)C(=O)O [XMP.391] (H-KVGWLIQLFHKK-OH; N-terminus and C-terminus assumed), the “change in DiOC6(3) fluorescence intensity in mammalian cells” value [1] was “no substantial increase in fluorescence intensity” and the minimum fungicidal concentration (C. albicans SLU#1 strain) was 2 µg/mL (≈ 1.34 µM).

With CC[C@H](C)[C@H](NC(=O)[C@H](CC(C)C)NC(=O)[C@H](Cc1c[nH]c2ccccc12)NC(=O)CNC(=O)[C@H](NC(=O)[C@H](N)CCCCN)C(C)C)C(=O)N[C@@H](CCC(N)=O)C(=O)N[C@@H](CC(C)C)C(=O)N[C@@H](Cc1ccccc1)C(=O)N[C@@H](Cc1c[nH]cn1)C(=O)N[C@H](CCCCN)C(=O)N[C@H](CCCCN)C(=O)O [XMP.445] (H-[dK][dV]GWLIQLFH[dK][dK]-OH; N-terminus and C-terminus assumed) the “concentration at which loss of fungal cell viability occurs” value [2] was “about 4 μg/mL”, the “change in DiOC6(3) fluorescence intensity (mean channel from baseline) vs. concentration” value [2] was “concentration-dependent increase in fluorescence intensity” and the “change in DiOC6(3) fluorescence intensity in mammalian cells” value [1] was “no substantial increase in fluorescence intensity”. The minimum fungicidal concentration (C. albicans SLU#1 strain) was 4 µg/mL (≈ 2.67 µM), the “fungal cell viability by PI uptake” value (C. albicans SLU#1) was “reduction of fungal cell viability or fungal cell death” and the “mammalian cell viability by PI uptake” value (MDCK cells; MDCK cells, PI, XMP.445 even at a concentration of 50-fold or greater) was “did not substantially affect viability of mammalian cells”. For the same compound, the “intestinal absorption screening outcome” value (CACO-2 and MDCK cells) was “potential orally available compound”, the “mortality vs dextrose-treated controls” value (Candida albicans, SLU-1; oral gavage 10 mg/kg every other day) was “significant improvement (p-value of 0.025)” and the “mortality vs dextrose-treated controls” value (Candida albicans, SLU-1; oral gavage 10 mg/kg or 20 mg/kg every other day) was “improvements in mortality compared with the dextrose-treated controls”. For the same compound, the “oral activity (study conclusion)” value (Candida albicans, SLU-1; mice systemically infected with C. albicans, oral gavage) was “has oral antifungal activity” and the “fluorescence intensity and localization by confocal microscopy vs untreated cells” value (fungal cells) was “increased fluorescence intensity that was localized at the mitochondria”.

In the case of Clc1ccc(COC(Cn2ccnc2)c2ccc(Cl)cc2Cl)c(Cl)c1 (stereo not drawn) [miconazole, reference compound], the “concentration at which loss of fungal cell viability occurs” value [2] is reported as “less than or equal to 1 μg/mL”, the “change in DiOC6(3) fluorescence intensity (mean channel from baseline) vs. concentration” value [2] is reported as “concentration-dependent increase in fluorescence intensity” and the “mammalian cell viability by PI uptake” value (MDCK cells) is reported as “increase in fluorescence intensity indicating cell death”.

For gentamicin, the “concentration required to produce a therapeutic effect” value (bacterial growth) is given as 8 µg/mL and the “concentration that produces a toxic effect” value [3] is given as 12000 ng/mL.
